Data as given in article PMC9656205, “In Vitro/In Vivo Translation of Synergistic Combination of MDM2 and MEK Inhibitors in Melanoma Using PBPK/PD Modelling: Part I” (International Journal of Molecular Sciences, 2022).
Where two headings read alike, the source gives them in different places. Each block holds one compound with its values, some of them ahead of it.

Legend:
[1] = tested on: A375 melanoma tumour model; assay: In vivo efficacy, tumour growth inhibition in A375 xenograft; parameters: species or system CD-1 nude mice; conditions: n = 6
Procedure: The studied compounds, namely HDM201 and Trametinib, were tested separately and in combination as a therapy against an A375 melanoma tumour model. Tested compounds were administrated in three and six doses per schedule. […] Data from this efficacy study indicate that HDM201 and Trametinib are more efficacious when they are used in combination, compared to their efficacy when administered separately (please refer to maximal tumour growth inhibition (TGI) percentage, presented in Table 7, and compounds efficacy in single and combined administrations, shown in Figure 9).
(§1) Crl:CD-1-Foxn1^nu female mice, 4–5 weeks old, from Charles River Germany, inoculated subcutaneously with A375 cells, were used for in vivo studies. Determination of compound concentrations in plasma and A375 tumour tissue homogenates were performed with the use of quantitative LC-MS/MS system. Plasma and tissue samples were resected at the following timepoints: 1.5, 4, 8, 24 h (n = 3 per timepoint) after oral administration. Pharmacokinetic parameters AUC, Cmax, and Tmax were calculated using MS Excel 2016. Area under the concentration versus time curve was calculated using the linear trapezoidal rule.
Determination of tumour growth was performed after oral gavage of Vehicle (60% PEG 400 (v/v), 10% Cremophor RH40 (v/v), 10% EtOH (v/v) and 20% Labrafil M1944CS (v/v)), Siremadlin, Trametinib or their combination in Vehicle. The volume of the administered formulation (10 mL/kg) of the compounds was always adjusted to the mice body weight.
Tumour volume (V) was recorded with an electronic calliper 2–3 times a week and was calculated based on its length and width, using the prolate ellipsoid equation [46] (Equation (1)):V (mm^3) = d^2 × D/2(1) where d is the tumour width (mm) and D is the tumour length (mm).
Tumour growth inhibition (TGI) value was calculated using Equation (2):TGI (%) = (100 − (T/C × 100))(2) where C is the mean tumour size in control group (mm^3) and T is the mean tumour size in treated group (mm^3).

A375 cells [2] = assay: Mean of MTS and RealTime-Glo assays (cytotoxicity / drug interaction metrics); format: cell-based, human
Procedure: (§2) Inhibition of tumour cell viability after single and combination drug treatment was measured with the use of MTS assay (CellTiter 96® AQueous Non-Radioactive Cell Proliferation Assay) and RealTime-Glo assay (RealTime-Glo™ MT Cell Viability Assay) in A375 cell line using standard manufacturer protocols. […] Drug combinations were tested in the matrix layout with the increasing concentrations of both drugs (please see Figures S1 and S2). […] Several independent assay repetitions were performed for MTS (n = 4) and RealTime-Glo assays (n = 3).
(§3) Drug combination interaction analysis was performed on in vitro cytotoxicity data from MTS and RealTime-Glo assays. […] For Synergyfinder analysis parameters, see Table S4. For a more detailed description of all Synergyfinder functions, please see its documentation and user instructions.

[3] = Pharmacokinetics in plasma and A375 tumour tissue after single oral administration; format: in vivo, CD-1 nude mice; conditions: female, Crl:CD-1-Foxn1nu (CD-1 nude), mouse; for Cmax: n = 3; for AUC(0-t): n = 3, read-out: AUC0–24h ± SD
Procedure: Pharmacokinetic profiles were determined after single oral administration of HDM201 (100 mg/kg) and Trametinib (1 mg/kg) in vehicle formulation in CD-1 nude mice. Initial analysis of compound concentrations included plasma and A375 tumour tissue homogenates.
as §1

A375 cells [4] = assay: RealTime-Glo MT cell viability assay, cytotoxicity and drug interaction analysis; format: cell-based; conditions: Homo sapiens, A-375, n = 3; for IC50: A375 cells, 72 h incubation, read-out: RealTime-Glo IC50 ± SD
Procedure: as §2, §3

A375 cells [5] = tested on: A375 cells; parameters: method as in PMID 30135191; conditions: cell count by amount of ATP (CellTiter-Glo assay), read-out: Literature IC50; cited from earlier work
A375 cells [6] = assay: MTS assay (CellTiter 96 AQueous) cytotoxicity and drug interaction analysis; format: cell-based; conditions: Homo sapiens, A-375; for IC50: A375 cells, 72 h incubation, read-out: MTS IC50 ± SD
Procedure: as §2, §3

A375 cells [7] = tested on: A375 cells; parameters: method as in PMID 22169769; conditions: cell count by DAPI nuclei staining, read-out: Literature IC50; cited from earlier work
[8] = A375 tumour tissue homogenate, 100 mg/kg, HDM201 100 mg/kg single oral, without Trametinib, A375 tumour
[9] = A375 tumour tissue homogenate, HDM201 100 mg/kg single oral, with Trametinib 1 mg/kg, A375 tumour
[10] = plasma, 100 mg/kg, HDM201 100 mg/kg single oral, without Trametinib, plasma
[11] = plasma, HDM201 100 mg/kg single oral, with Trametinib 1 mg/kg, plasma
[12] = plasma, range stated jointly for HDM201 and Trametinib, oral, mice, sparse sampling, read-out: typical Tmax
[13] = A375 tumour tissue homogenate, 1 mg/kg, Trametinib 1 mg/kg single oral, with HDM201 100 mg/kg, A375 tumour
[14] = A375 tumour tissue homogenate, 1 mg/kg, Trametinib 1 mg/kg single oral, without HDM201, A375 tumour
[15] = plasma, 1 mg/kg, Trametinib 1 mg/kg single oral, with HDM201 100 mg/kg, plasma
[16] = plasma, 1 mg/kg, Trametinib 1 mg/kg single oral, without HDM201, plasma

Cmax [3, 8]: 16.2 µM
AUC(0-t) [3, 8]: 179 µM·h
Tmax ([3]; A375 tumour tissue homogenate, 100 mg/kg, HDM201 100 mg/kg single oral, without Trametinib, A375 tumour, n = 3, read-out: Tmax ± SD): 1.5 ± 1.44 h
Cmax [3, 9]: 28.6 µM
AUC(0-t) [3, 9]: 219 µM·h
Tmax ([3]; A375 tumour tissue homogenate, HDM201 100 mg/kg single oral, with Trametinib 1 mg/kg, A375 tumour, n = 3, read-out: Tmax ± SD): 1.5 ± 1.44 h
Cmax [3, 10]: 9.78 ± 2.98 µM
AUC(0-t) [3, 10]: 95.1 µM·h
Tmax ([3]; plasma, 100 mg/kg, HDM201 100 mg/kg single oral, without Trametinib, plasma, n = 3, read-out: Tmax ± SD): 1.5 ± 1.44 h
Cmax [3, 11]: 14.6 µM
AUC(0-t) [3, 11]: 108 µM·h
Tmax ([3]; plasma, HDM201 100 mg/kg single oral, with Trametinib 1 mg/kg, plasma, n = 3, read-out: Tmax ± SD): 1.5 ± 1.44 h
Tmax [3, 12]: 1.5 to 4 h
SMILES: COc1ncc(-c2nc3c(n2C(C)C)[C@H](c2ccc(Cl)cc2)N(c2cc(Cl)cn(C)c2=O)C3=O)c(OC)n1 [Siremadlin (HDM201), Siremadlin]
Max TGI (%) ± SEM ([1]; HDM201 40 mg/kg qdx3, oral): 33.39 ± 13.90%
Max TGI (%) ± SEM ([1]; HDM201 100 mg/kg qdx3, oral): 76.94 ± 5.38%
% of viability at the last measurement ± SD (A375 cells [2]; Siremadlin): 21.445 ± 6.389%
IC50 (A375 cells [4]): 260 ± 170 nM
viability at 4 µM (A375 cells [4]; RealTime-Glo, max concentration 4000 nM, last observation after 80h, read-out: % of viability at the last measurement ± SD): 21 ± 6.86%
IC50 (A375 cells [5]): 764 nM
IC50 (A375 cells [6]; n = 4): 65.7 ± 4.7 nM
viability at 0.2 µM (A375 cells [6]; MTS, max concentration 200 nM, last observation after 72h, n = 4 (resistant population estimate), read-out: % of viability at the last measurement ± SD): 21.9 ± 5.92%

Cmax [3, 13]: 0.715 ± 0.197 µM
AUC(0-t) [3, 13]: 9.66 ± 1.39 µM·h
Tmax ([3]; A375 tumour tissue homogenate, 1 mg/kg, Trametinib 1 mg/kg single oral, with HDM201 100 mg/kg, A375 tumour, n = 3, read-out: Tmax ± SD): 4 h
Cmax [3, 14]: 0.587 ± 0.0663 µM
AUC(0-t) [3, 14]: 9.13 ± 1.3 µM·h
Tmax ([3]; A375 tumour tissue homogenate, 1 mg/kg, Trametinib 1 mg/kg single oral, without HDM201, A375 tumour, n = 3, read-out: Tmax ± SD): 4 h
Cmax [3, 15]: 0.354 ± 0.106 µM
AUC(0-t) [3, 15]: 4.48 ± 1.17 µM·h
Tmax ([3]; plasma, 1 mg/kg, Trametinib 1 mg/kg single oral, with HDM201 100 mg/kg, plasma, n = 3, read-out: Tmax ± SD): 4 ± 1.44 h
Cmax [3, 16]: 0.567 ± 0.0494 µM
AUC(0-t) [3, 16]: 5.58 ± 0.567 µM·h
Tmax ([3]; plasma, 1 mg/kg, Trametinib 1 mg/kg single oral, without HDM201, plasma, n = 3, read-out: Tmax ± SD): 4 ± 1.44 h
Tmax [3, 12]: 1.5 to 4 h
SMILES: CC(=O)Nc1cccc(-n2c(=O)n(C3CC3)c(=O)c3c(Nc4ccc(I)cc4F)n(C)c(=O)c(C)c32)c1 [Trametinib]
Max TGI (%) ± SEM ([1]; Trametinib 0.3 mg/kg qdx6, oral): 65.47 ± 21.29%
Max TGI (%) ± SEM ([1]; Trametinib 1 mg/kg qdx6, oral): 90.05 ± 1.13%
% of viability at the last measurement ± SD (A375 cells [2]; Trametinib): 14.097 ± 2.594%
IC50 (A375 cells [4]): 0.8 ± 0.4 nM
viability at 0.04 µM (A375 cells [4]; RealTime-Glo, max concentration 40 nM, last observation after 80h, read-out: % of viability at the last measurement ± SD): 14.9 ± 2.59%
IC50 (A375 cells [7]): 1 nM
IC50 (A375 cells [6]; n = 4): 0.58 ± 0.03 nM
viability at 0.004 µM (A375 cells [6]; MTS, max concentration 4 nM, last observation after 72h, n = 4, read-out: % of viability at the last measurement ± SD): 13.3 ± 2.6%
